Laboratory results as given in publication PMC6893700 (Viruses, 2019).
Read-outs that look alike come from different tables or passages of the source.

Legend:
Vero E6 cells = experiment: Initial screening: cytotoxicity observed under a microscope; conditions: initial screening at 20 µM
ZIKV strain PAN2016 [1] = experiment: Plaque reduction inhibition assay, ZIKV PAN2016 in Vero E6 cells; format: cell-based; conditions: Zika virus
[2] = system: ZIKV rhesus macaque strain MR 766; experiment: Plaque reduction inhibition assay, ZIKV MR 766 in Vero E6 cells; format: cell-based; conditions: Zika virus, Vero C1008, in Macaca mulatta, read-out: IC50 MR 766
in vitro [3] = conditions: rhesus monkey
ZIKV strain PRVABC59 = experiment: Plaque reduction inhibition assay, ZIKV PRVABC59 in Vero E6 cells; format: cell-based; conditions: Zika virus, Vero C1008, read-out: IC90 against ZIKV strain PRVABC59
ZIKV (PAN2016) = experiment: Time-of-addition experiment, ZIKV PAN2016 in Vero E6 cells; format: cell-based, Zika virus (ZIKV); conditions: gossypol 15 µM, curcumin 30 µM, digitonin 7.5 µM, conessine 30 µM
ZIKV strain R103451 = experiment: Plaque reduction inhibition assay, ZIKV R103451 in Vero E6 cells; format: cell-based; conditions: Zika virus, Vero C1008, read-out: IC50 R103451
in vitro [4] = conditions: African green monkey
DENV-1-V1792 = experiment: Plaque reduction inhibition assay, DENV-1 in LLC-MK2 cells; format: cell-based; conditions: Dengue virus, DENV1
nine ZIKV strains = experiment: Plaque reduction inhibition assay, nine additional ZIKV strains (summary); format: cell-based; conditions: Zika virus, Vero C1008; range over nine additional ZIKV strains, Vero E6 cells; read-out: IC50 values against all nine ZIKV strains tested
[5] = biological target: binding between ZIKV EDIII protein and EDIII-specific human mAbs (Zika virus, UniProt A0A024B7W1); conditions: ELISA; no binding between ZKA78 and EDIII
DENV-3-V1043 = experiment: Plaque reduction inhibition assay, DENV-3 in LLC-MK2 cells; format: cell-based; conditions: Dengue virus, DENV3
ZIKV strain FLR [6] = format: cell-based, Zika virus (ZIKV); conditions: Zika virus, Vero C1008, read-out: IC50 Alone
DENV-4-PR 06-65-740 = experiment: Plaque reduction inhibition assay, DENV-4 in LLC-MK2 cells; format: cell-based; conditions: Dengue virus, DENV4
[7] = system: ZIKV mosquito strain MEX 2–81; experiment: Plaque reduction inhibition assay, ZIKV MEX 2–81 in Vero E6 cells; format: cell-based; conditions: Zika virus, Vero C1008, read-out: IC50 MEX 2–81
in vitro [8] = conditions: African green monkey; remark: listed apart in the source
ZIKV strain IbH 30656 = experiment: Plaque reduction inhibition assay, ZIKV IbH 30656 in Vero E6 cells; format: cell-based; conditions: Zika virus, Vero C1008, read-out: IC50 IbH 30656
ZIKV strain FLR [9] = experiment: Plaque reduction inhibition assay, ZIKV FLR in Vero E6 cells; format: cell-based; conditions: Zika virus, Vero C1008, read-out: IC50 FLR
DENV-2-V594 = experiment: Plaque reduction inhibition assay, DENV-2 in LLC-MK2 cells; format: cell-based; conditions: Dengue virus, DENV2
ZIKV strain PLCal_ZV = experiment: Plaque reduction inhibition assay, ZIKV PLCal_ZV in Vero E6 cells; format: cell-based; conditions: Zika virus, Vero C1008, read-out: IC50 PLCal_ZV
ZIKV strain PAN2016 [10] = format: cell-based, Zika virus (ZIKV); conditions: Zika virus, Vero C1008, read-out: IC50 Alone

Chain of binding between ZIKV EDIII protein and EDIII-specific human mAbs (A0A024B7W1 588-699): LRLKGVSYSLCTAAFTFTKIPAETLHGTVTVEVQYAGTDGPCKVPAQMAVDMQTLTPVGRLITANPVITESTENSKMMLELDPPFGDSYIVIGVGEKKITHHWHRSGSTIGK

Which results are given for `Cc1cc2c(C(C)C)c(O)c(O)c(C=O)c2c(O)c1-c1c(C)cc2c(C(C)C)c(O)c(O)c(C=O)c2c1O` [Gossypol, gossypol]?
cytotoxicity in Vero E6 cells observed under a microscope (Vero E6 cells): no obvious cytotoxicity; IC50 (ZIKV strain PAN2016 [1]; Vero C1008, read-out: IC50 PAN2016): 3.48 ± 0.03 µM; IC90 (ZIKV strain PAN2016 [1]; Vero C1008, read-out: IC90 against ZIKV PAN2016 strain): ~6.91 µM; IC50 [2]: 3.75 ± 0.01 µM; CC50 at 3 days (in vitro [3]): 14.5 ± 0.59 µM; IC90 (ZIKV strain PRVABC59): ~8.81 µM; inhibition of ZIKV infection, step e: penetration (membrane fusion) (ZIKV (PAN2016); cells with ZIKV 4 °C 1 h, then natural product 37 °C 1 h): maintained its infectivity; inhibition of ZIKV infection, step f: postentry stage (ZIKV (PAN2016); cells with ZIKV 37 °C 1 h, then natural product 37 °C 1 h): maintained its infectivity; inhibition of ZIKV infection, step b: pretreatment of cells (ZIKV (PAN2016); cells with natural product 37 °C 1 h before ZIKV): maintained its infectivity; inhibition of ZIKV infection, step c: cotreatment at 4 °C (attachment) (ZIKV (PAN2016); cells, ZIKV and natural product 4 °C 1 h): maintained its infectivity; inhibition of ZIKV infection, step d: cotreatment at 37 °C (ZIKV (PAN2016); cells, ZIKV and natural product 37 °C 1 h): maintained its infectivity; inhibition of ZIKV infection, step a: pretreatment of ZIKV (ZIKV (PAN2016); natural product with ZIKV 37 °C 1 h before cells): completely lost its infectivity; IC50 (ZIKV strain R103451): 2.28 ± 0.1 µM; CC50 at 3 days (in vitro [4]): 14.8 ± 0.42 µM; IC50 (DENV-1-V1792): 1.87 ± 0.01 µM; IC50 (nine ZIKV strains): 0.21 to 4.31 µM; inhibition with control mAb ZKA78 (EDI/DII-specific) [5]: no obvious inhibition; IC50 (DENV-3-V1043): 3.7 ± 0.59 µM; IC50 (ZIKV strain FLR [6]): 0.26 ± 0.01 µM; IC50 (DENV-4-PR 06-65-740): 2.6 ± 0.12 µM; IC50 [7]: 2.79 ± 0.01 µM; CC50 at 3 days (in vitro [8]): 14.2 ± 0.74 µM; IC50 (ZIKV strain IbH 30656): 3.31 ± 0.11 µM; IC50 (ZIKV strain FLR [9]): 0.21 ± 0.01 µM; IC50 (DENV-2-V594): 1.89 ± 0.21 µM; IC50 (ZIKV strain PLCal_ZV): 1.98 ± 0.07 µM; IC50 (ZIKV strain PAN2016 [10]): 3.79 ± 0.01 µM
